Test results reported in patent US6924301B1, “Composition for treating or preventing arrhythmia” (Shionogi & Co., Ltd., priority 1999, dated 2005).

Biological target: T1, cPLA2 (Homo sapiens, UniProt P47712)
T1 sequence (P47712 1-749): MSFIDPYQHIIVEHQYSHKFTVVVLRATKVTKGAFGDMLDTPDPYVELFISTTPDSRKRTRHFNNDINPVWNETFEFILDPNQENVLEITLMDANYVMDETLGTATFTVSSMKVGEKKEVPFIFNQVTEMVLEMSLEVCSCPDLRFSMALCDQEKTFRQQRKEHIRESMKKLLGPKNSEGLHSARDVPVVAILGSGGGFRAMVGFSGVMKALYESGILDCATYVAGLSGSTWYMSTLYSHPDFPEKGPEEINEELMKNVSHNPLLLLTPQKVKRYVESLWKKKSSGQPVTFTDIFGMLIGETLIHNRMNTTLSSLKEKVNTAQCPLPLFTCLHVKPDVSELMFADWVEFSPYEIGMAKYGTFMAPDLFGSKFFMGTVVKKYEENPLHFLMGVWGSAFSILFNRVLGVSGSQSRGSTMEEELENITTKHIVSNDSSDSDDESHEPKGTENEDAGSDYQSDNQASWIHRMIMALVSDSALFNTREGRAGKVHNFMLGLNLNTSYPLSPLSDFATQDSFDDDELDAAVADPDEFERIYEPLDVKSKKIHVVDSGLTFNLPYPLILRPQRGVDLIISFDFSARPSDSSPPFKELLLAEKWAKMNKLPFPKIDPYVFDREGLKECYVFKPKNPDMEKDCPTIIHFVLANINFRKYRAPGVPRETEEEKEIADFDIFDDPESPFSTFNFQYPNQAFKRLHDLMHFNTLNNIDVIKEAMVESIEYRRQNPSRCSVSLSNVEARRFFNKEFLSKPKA
Assay: cPLA2 inhibitory activity
Assay type: biochemical
Conditions: 1-palmitoyl-2-[14C]-arachidonoyl-sn-glycero-3-phosphocholine liposomes, 15 min at 37° C.
Method: The compounds of the present invention were tested for the cPLA2 inhibitory activity according to the method disclosed in […]. Roberts, […], and J. E. Putnam, J. Biol. Chem., 1991, 266, 5268-5272 as outlined below. […] The reaction mixture includes 50 mM HEPES buffer (pH 7.5), 1 mM calcium chloride, 150 mM sodium chloride, 0.1 mg/ml bovine serum albumin, and 1.7 mM dithiothreitol. To the reaction mixture was added the compound of the present invention and the substrate solution. The reaction was allowed to start by adding an enzyme and continued for 15 min at 37° C. The fatty acids released by the reaction were extracted by the method described in V. P. Dole, and H. Meinertz, J. Biol. Chem., 1960, 235, 2595-2599 and its radiation activity was measured on a liquid scintillation counter. Control was obtained by conducting the experiment in the same manner except that a compound of the present invention was not added.

Row | IC50 [nM] | Structure (SMILES)
1 | 33 | CC(C)CN(C(c1ccccc1)c1ccccc1)[C@@H]1C[C@@H](CNC(=O)c2ccc(/C=C3\SC(=O)NC3=O)cc2)N(C(=O)c2ccccc2C(=O)c2ccccc2)C1 [Compound A-1]
2 | 14 | CC(C)CN(C1CC(CNC(=O)c2ccc(C=C3SC(=O)NC3=O)cc2)N(C(=O)c2ccccc2C(=O)c2ccccc2F)C1)C(c1ccccc1)c1ccccc1 (centres unmarked) [Compound A-2]
3 | 94 | CC(C)CN(C1CC(CNC(=O)c2ccc(C=C3SC(=O)NC3=O)cc2)N(C(=O)c2ccccc2C(=O)c2cccc(F)c2)C1)C(c1ccccc1)c1ccccc1 (centres unmarked) [Compound A-3]
4 | 7.4 | CC(C)CN(C1CC(CNC(=O)c2ccc(C=C3SC(=O)NC3=O)cc2)N(C(=O)c2ccccc2C(=O)c2c(F)cccc2F)C1)C(c1ccccc1)c1ccccc1 (centres unmarked) [Compound A-5]
5 | 4.5 | CC(C)CN(C1CC(CNC(=O)c2ccc(C=C3SC(=O)NC3=O)cc2)N(C(=O)c2cccc(F)c2C(=O)c2ccc(F)cc2F)C1)C(c1ccccc1)c1ccccc1 (centres unmarked) [Compound A-6]
6 | 5.1 | CC(C)CN(C1CC(CNC(=O)c2ccc(C=C3SC(=O)NC3=O)cc2)N(C(=O)c2c(F)cccc2C(=O)c2ccc(F)cc2F)C1)C(c1ccccc1)c1ccccc1 (centres unmarked) [Compound A-7]
7 | 5 | CC(C)CN(C1CC(CNC(=O)c2ccc(C=C3SC(=O)NC3=O)cc2)N(C(=O)c2ccc(F)cc2C(=O)c2ccc(F)cc2F)C1)C(c1ccccc1)c1ccccc1 (centres unmarked) [Compound A-8]
8 | 2 | CC(C)CN(C1CC(CNC(=O)c2ccc(C=C3SC(=O)NC3=O)cc2)N(C(=O)c2cc(F)ccc2C(=O)c2ccc(F)cc2F)C1)C(c1ccccc1)c1ccccc1 (centres unmarked) [Compound A-9]
9 | 29 | COc1ccc(C(=O)c2ccc(F)cc2F)c(C(=O)N2CC(N(CC(C)C)C(c3ccccc3)c3ccccc3)CC2CNC(=O)c2ccc(C=C3SC(=O)NC3=O)cc2)c1 (centres unmarked) [Compound A-10]
10 | 5.2 | CC(C)CN(C1CC(CNC(=O)c2ccc(C=C3SC(=O)NC3=O)cc2)N(C(=O)c2cc(Cl)ccc2C(=O)c2ccc(F)cc2F)C1)C(c1ccccc1)c1ccccc1 (centres unmarked) [Compound A-11]
11 | 2.1 | CC(C)CN(C1CC(CNC(=O)c2ccc(C=C3SC(=O)NC3=O)s2)N(C(=O)c2ccccc2C(=O)c2ccc(F)cc2F)C1)C(c1ccccc1)c1ccccc1 (centres unmarked) [Compound A-12]
12 | 1.8 | CC(C)CN(Cc1ccccc1-c1ccccc1)[C@@H]1C[C@@H](CNC(=O)/C=C/c2ccc(/C=C3\SC(=O)NC3=O)cc2)N(C(=O)c2ccccc2C(=O)c2ccc(F)cc2F)C1 [Compound A-14]
13 | 3.7 | O=C(/C=C/c1ccc(/C=C2\SC(=O)NC2=O)cc1)NC[C@@H]1C[C@@H](N(Cc2ccccc2)C(c2ccccc2)c2ccccc2)CN1C(=O)c1ccccc1C(=O)c1ccc(F)cc1F [Compound A-17]
14 | 20 | O=C1NC(=O)C(=Cc2ccc(C(=O)NCC3CC(SCc4c(-c5ccccc5)cccc4-c4ccccc4)CN3C(=O)c3ccccc3C(=O)c3ccc(F)cc3F)cc2)S1 (centres unmarked) [Compound B-2]
15 | 9 | COc1ccc(C(SC2CC(CNC(=O)c3ccc(C=C4SC(=O)NC4=O)cc3)N(C(=O)c3ccccc3C(=O)c3ccc(F)cc3F)C2)(c2ccccc2)c2ccc(OC)cc2)cc1 (centres unmarked) [Compound B-3]
16 | 2.6 | O=C1NC(=O)C(=Cc2ccc(C(=O)NCC3CC(SC(c4ccccc4)(c4cccc(F)c4)c4cccc(F)c4)CN3C(=O)c3ccccc3C(=O)c3ccc(F)cc3F)cc2)S1 (centres unmarked) [Compound B-4]
17 | 2.7 | O=C1NC(=O)C(=Cc2ccc(C(=O)NCC3CC(SC(c4ccccc4)(c4ccccc4)c4cc(F)cc(F)c4)CN3C(=O)c3ccccc3C(=O)c3ccc(F)cc3F)cc2)S1 (centres unmarked) [Compound B-5]
18 | 1.3 | Cc1cc(C)cc(C(SC2CC(CNC(=O)c3ccc(C=C4SC(=O)NC4=O)cc3)N(C(=O)c3ccccc3C(=O)c3ccc(F)cc3F)C2)(c2ccccc2)c2ccccc2)c1 (centres unmarked) [Compound B-6]

Same assay, conditions: 0.25 h; Table 10; same assay

Row | IC60 [nM] | Structure (SMILES)
19 | 1.4 | Cc1cccc(C(SC2CC(CNC(=O)c3ccc(C=C4SC(=O)NC4=O)cc3)N(C(=O)c3ccccc3C(=O)c3ccc(F)cc3F)C2)(c2ccccc2)c2cccc(C)c2)c1 (centres unmarked) [Compound B-7]
20 | 1.2 | O=C1NC(=O)C(Cc2ccc(C(=O)NCC3CC(SC(c4ccccc4)(c4ccccc4)c4ccccc4)CN3C(=O)c3ccccc3C(=O)c3ccc(F)cc3F)cc2)S1 (centres unmarked) [Compound B-8]
21 | 0.6 | O=C(C=Cc1ccc(C=C2SC(=O)NC2=O)cc1)NCC1CC(SC(c2ccccc2)(c2ccccc2)c2ccccc2)CN1C(=O)c1ccccc1C(=O)c1ccc(F)cc1F (centres unmarked) [Compound B-9]
22 | 5.6 | O=C(C=Cc1ccc(C=C2SC(=O)NC2=O)cc1)NCC1CC(SCc2c(-c3ccccc3)cccc2-c2ccccc2)CN1C(=O)c1ccccc1C(=O)c1ccc(F)cc1F (centres unmarked) [Compound B-10]
23 | 1.2 | COc1ccc(C(SC2CC(CNC(=O)C=Cc3ccc(C=C4SC(=O)NC4=O)cc3)N(C(=O)c3ccccc3C(=O)c3ccc(F)cc3F)C2)(c2ccccc2)c2ccccc2)cc1 (centres unmarked) [Compound B-11]
24 | 2 | COc1ccc(C(SC2CC(CNC(=O)C=Cc3ccc(C=C4SC(=O)NC4=O)cc3)N(C(=O)c3ccccc3C(=O)c3ccc(F)cc3F)C2)(c2ccccc2)c2ccc(OC)cc2)cc1 (centres unmarked) [Compound B-12]
25 | 2 | Cc1ccc(C(SC2CC(CNC(=O)C=Cc3ccc(C=C4SC(=O)NC4=O)cc3)N(C(=O)c3ccccc3C(=O)c3ccc(F)cc3F)C2)(c2ccccc2)c2ccccc2)cc1 (centres unmarked) [Compound B-13]
26 | 1.2 | O=C(C=Cc1ccc(C=C2SC(=O)NC2=O)cc1)NCC1CC(SC(c2ccc(F)cc2)(c2ccc(F)cc2)c2ccc(F)cc2)CN1C(=O)c1ccccc1C(=O)c1ccc(F)cc1F (centres unmarked) [Compound B-14]
27 | 1.2 | Cc1ccccc1C(SC1CC(CNC(=O)C=Cc2ccc(C=C3SC(=O)NC3=O)cc2)N(C(=O)c2ccccc2C(=O)c2ccc(F)cc2F)C1)(c1ccccc1)c1ccccc1 (centres unmarked) [Compound B-15]
28 | 1 | Cc1cccc(C(SC2CC(CNC(=O)C=Cc3ccc(C=C4SC(=O)NC4=O)cc3)N(C(=O)c3ccccc3C(=O)c3ccc(F)cc3F)C2)(c2ccccc2)c2ccccc2)c1 (centres unmarked) [Compound B-16]
29 | 0.63 | O=C(C=Cc1ccc(C=C2SC(=O)NC2=O)cc1)NCC1CC(SC(c2ccc(Cl)cc2)(c2ccc(Cl)cc2)c2ccc(Cl)cc2)CN1C(=O)c1ccccc1C(=O)c1ccc(F)cc1F (centres unmarked) [Compound B-17]
30 | 0.26 | CC(C)c1cccc(C(SC2CC(CNC(=O)C=Cc3ccc(C=C4SC(=O)NC4=O)cc3)N(C(=O)c3ccccc3C(=O)c3ccc(F)cc3F)C2)(c2ccccc2)c2ccccc2)c1 (centres unmarked) [Compound B-18]
31 | 2.9 | O=C(C=Cc1ccc(C=C2SC(=O)NC2=O)cc1)NCC1CC(SC(c2ccccc2)(c2ccccc2)c2cccs2)CN1C(=O)c1ccccc1C(=O)c1ccc(F)cc1F (centres unmarked) [Compound B-19]
32 | 1.4 | O=C(C=Cc1ccc(CC2SC(=O)NC2=O)cc1)NCC1CC(SC(c2ccccc2)(c2ccccc2)c2ccccc2)CN1C(=O)c1ccccc1C(=O)c1ccc(F)cc1F (centres unmarked) [Compound B-20]
33 | 0.27 | Cc1cccc(C(SC2CC(CNC(=O)C=Cc3ccc(C=C4SC(=O)NC4=O)cc3)N(C(=O)c3ccccc3C(=O)c3ccc(F)cc3F)C2)(c2ccccc2)c2cccc(C)c2)c1 (centres unmarked) [Compound B-21]
34 | 0.37 | Cc1cc(C)cc(C(SC2CC(CNC(=O)C=Cc3ccc(C=C4SC(=O)NC4=O)cc3)N(C(=O)c3ccccc3C(=O)c3ccc(F)cc3F)C2)(c2ccccc2)c2ccccc2)c1 (centres unmarked) [Compound B-22]
35 | 0.52 | O=C(C=Cc1ccc(C=C2SC(=O)NC2=O)cc1)NCC1CC(SC(c2ccccc2)(c2ccccc2)c2ccccc2F)CN1C(=O)c1ccccc1C(=O)c1ccc(F)cc1F (centres unmarked) [Compound B-23]
